Literature values, collected in patent US20110183005A1, “PROCESS FOR THE PREPARATION OF CO[…] OF STABILIZED HYPOBROMITES” (BROMINE COMPOUNDS LTD., priority 2002, published 2011).

Details: at 25° C.

Question: Which pK does the source give for `OBr` [Hypobromous acid] here?
Answer: 8.8
